Data on five compounds can be found in patent US5849745A, “N-benzylpiperazine compounds” (ADIR et Compagnie, priority 1996, dated 1998).

Counter-ions that a name gives are not always drawn.

The nature of data set [1]: Ability to cross the blood/brain barrier, endothelial cell/astrocyte coculture model. As to conditions: in vitro coculture model, 37° C.; read-out: coefficient of permeability of the blood/brain barrier (Pe) (converted). In kind it is in vitro ADME. The method, then:
(§1) In order to study the functions of cerebral capillaries "in vitro", we developed a coculture model which allows the "in vivo" situation to be recreated. The endothelial cells of capillaries and astrocytes are cultured on either side of a filter.
(§2) The endothelial cells are cultured in the upper compartment on the filter and the astrocytes in the lower compartment on the bottom of the Petri dish.
(§3) On the day of the experiment, a solution of Ringer-HEPES (150 mM NaCl; 5.2 mM KCl; 2.2 mM CaCl2; 0.2 mM MgCl2 ·6H2 O; 6 mM NaHCO3; 5 mM HEPES; 2.8 mM glucose) is placed in the lower compartment of a 6-well dish (3 ml per well). A filter of covered with a monolayer of endothelial cells is transferred into the first well of the 6-well dish. 2 ml of the Ringer-HEPES solution containing the test compound are placed in the upper compartment of the filter. […] The experiments are performed in triplicate with filters covered with a monolayer of endothelial cells from cerebral capillaries or of collagen alone as control. They are agitated at 37° C. throughout the experiment.
(§4) In the graph clearance=f(t), measurement of the slope gives the value "PSt" where PS=permeability×surface area of the monolayer (in μl/min) for the filters covered with cerebral capillary endothelial cells. "PSf" is calculated in the same way for the control filters. The permeability for the monolayer of endothelial cells alone (PSe) is given by: [formula]
(§5) The coefficient of endothelial permeability "Pe" is calculated by dividing "PSe" by the surface area of the monolayer of endothelial cells. "Pe" is expressed in "cm/min".

Data set [2] concerns blood/brain barrier model (monolayer of cerebral capillary endothelial cells cocultured with astrocytes). The description is as above. It is filed as in vitro ADME. The settings on record: concluded from the coefficient of permeability. As to the method: as §1, §2, §3, §4, §5
Data set [3] deals with isolated rat heart (myocardium). In words: Ischemia-reperfusion sequence on isolated rat heart (contractile function and myocytic energetic metabolic response, 31P NMR). The settings on record: 5×10^-6 M; for intracellular pH at the end of the ischemia: control falls from pH 7.2 to pH 6.0. The method, then: Study of the compounds of the invention on the contractile function of the myocardium and on the myocytic energetic metabolic response in the course of an ischemia-reinfusion sequence (isolated rat heart).
This study was carried out by means of the use of ^31 P NMR spectroscopy, this technique allowing the monitoring, on an isolated and infused heart, of the variation in the contents of phosphorylated compounds (ATP, phosphocreatine, inorganic phosphate) and in the intracellular pH. It allows continuous investigation of a number of variables linked with the energetic state of the myocardium and allows a comparative evaluation of the antiischemic properties of several products.
The isolated rat heart is infused aortically at a constant pressure (100 cm of water) for 30 min. and is then subjected to a partial global ischemia (coronary output reduced to 1.3% of the initial output) for 24 min., and, lastly, the heart is reinfused at constant pressure for 30 min.
Throughout the experiment, NMR spectra corresponding to 3-minute-long acquisitions are recorded. After statistical exploitation, they serve to determine the intracardial concentration of ATP, of phosphocreatine (PC) and of inorganic phosphate (Pi), as well as to evaluate the intracellular pH.
This procedure is intended to assess the effect of the presence of the product before and during the ischemia. To this end, the product is administered in the infusion medium after normoxic infusion for 20 min; it remains present in the infusion solution throughout the remainder of the experiment. A concentration of 5×10^-6 M was chosen for this comparative study.
This is intended to evaluate the effects of the products on the heart function. The heart is infused under the conditions defined above, and a catheter connected to a pressure sensor is introduced into the left ventrical (via the atrium) in order to monitor the pressure changes developed by the LV. The heart rate and the heart output are also monitored.
This is carried out in a superconducting magnet of 5.9 T in order to record the ^31 P NMR spectra. This series of experiments is intended to evaluate the impact of the product on the energetic equilibrium of the myocardium both in normoxia, in ischemia and in reinfusion.

Data set [4] relates to mitochondrial ATP synthesis (isolated rat liver mitochondria). Description: Mitochondrial energy (ATP) production during experimental calcium overload (cyclosporin A), isolated rat liver mitochondria. It is filed as biochemical. The settings on record: 1×10^-6 M. The method, then:
Briefly, the mitochondria are extracted from rat livers. Mitochondrial respiration (1.5 mg of proteins placed in a reaction chamber) is brought about by the addition of sodium succinate, which is used as substrate (at 6×10^-4 M) and oxidative phosphorylation is triggered by the addition of ADP to the survival medium up to a final concentration of 1×10^-5 M. By recording the rates of oxygen consumption (in nmol/min./mg of mitochondrial protein) it is possible to calculate the characteristic parameters of the mitochondrial energy synthesis in the form of ATP.

With `CCN1CCN(Cc2ccc(OC)c(OC)c2OC(=O)[C@H]2C[C@@H]2c2ccccc2)CC1` [Example 19, N-(3,4-Dimethoxy-2-E-(S,S)-phenylcyclopropylcarbonyloxy)benzyl-N'-ethylpiperazine dihydrochloride], in data set [1], the Papp was over 16.7 ×10⁻⁶ cm/s. Further, the “penetration into the brain (in words)” value in data set [2] is given as “penetrate the brain very easily”.

Regarding `COc1ccc(CN2CCN(Cc3ccccc3)CC2)c(OC(=O)[C@@H]2C[C@H]2c2ccccc2)c1OC` (relative stereo) [Example 2, N-(3,4-Dimethoxy-2-E-phenylcyclopropylcarbonyloxy)benzyl-N'-benzylpiperazine dihydrochloride], the Papp in data set [1] was over 16.7 ×10⁻⁶ cm/s. For the same compound, the “penetration into the brain (in words)” value in data set [2] is reported as “penetrate the brain very easily”.

Consider `CCN1CCN(Cc2ccc(OC)c(OC)c2OC(=O)[C@@H]2C[C@H]2c2ccccc2)CC1` (relative stereo) [Example 1, N-(3,4-Dimethoxy-2-E-phenylcyclopropylcarbonyloxy)benzyl-N'-ethylpiperazinedihydrochloride], for which, in data set [3], the “cytoprotective effect during an ischemia-reinfusion sequence of the myocardium, compared with trimetazidine” value is recorded as “greatly increased”; the “effect on the intracellular acidosis induced by the ischemia” value is “particularly pronounced”; the “intracellular pH at the end of the ischemia” value was found to be 6.5. In data set [4], the “restoration of mitochondrial ATP synthesis” value turned out to be 100%. In data set [1], the Papp is over 16.7 ×10⁻⁶ cm/s. The “penetration into the brain (in words)” value in data set [2] was “penetrate the brain very easily”.

In the case of `COc1ccc(CN2CCNCC2)c(OC)c1OC` [trimetazidine, 2,3,4-trimethoxybenzylpiperazine, reference compound], the “intracellular pH at the end of the ischemia” value in data set [3] was 6.35. Besides, the Papp in data set [1] is 7 ×10⁻⁶ cm/s. The “penetration into the brain (in words)” value in data set [2] is reported as “penetrates poorly into the brain”.

Turning to `CCN1CCN(Cc2ccc(OC)c(OC)c2OC(=O)[C@@H]2C[C@H]2c2ccccc2)CC1` [Example 17, N-(3,4-Dimethoxy-2-E-(R,R)-phenylcyclopropylcarbonyloxy)benzyl-N'-ethylpiperazine dihydrochloride], the Papp in data set [1] is over 16.7 ×10⁻⁶ cm/s. In addition, the “penetration into the brain (in words)” value in data set [2] is listed as “penetrate the brain very easily”.
